From ChEMBL document CHEMBL1140173, “Clerodane diterpenoids with NGF-potentiating activity from Ptychopetalum olacoides” (J Nat Prod, 2008)
Active and inactive are the calls of the source. No cut-off for these calls is given here.

Key:
PC-12 [1] = test: Induction of neurite outgrowth in rat PC12 cells in presence of nerve growth factor at 0.1 to 10.0 uM; type: functional, cell-based
PC-12 [2] = test: Induction of neurite outgrowth in rat PC12 cells in absence of nerve growth factor at 0.1 to 10.0 uM; type: functional, cell-based

Row | Compound | Activity (PC-12 [1]) | Activity (PC-12 [2])
1 | CC1=CCC[C@@H]2[C@]3(CCc4ccoc4)C(=O)O[C@H](C[C@@]12C)[C@H]3C | inactive | inactive
2 | CO[C@H]1O[C@@H]2C[C@@]3(C)C(C)=CCC[C@@H]3[C@@]1(CCc1ccoc1)[C@@H]2C | inactive | inactive
